We go through 17 compounds from patent publication US12528813B2, “Substituted imidazo[4,5-b]pyridines as M3 receptor PAMs” (NIPPON SHINYAKU CO., LTD., priority 2019, dated 2026).

For the first data set, the system named is anesthetized rats. Kind of data set: Effect on increase in intravesical pressure induced by pelvic nerve electrical stimulation in anesthetized rats. The data set is classed as in vivo, rat. The conditions noted are these: Rattus norvegicus, 1 h, anesthetized SD female rats, test compound 0.3 mg/kg intravenous, single dose, read-out: Ratio of Change Rc of AUC of increase in intravesical pressure (maximum during 1 hour after administration). As for the experimental part: As the action of nerve stimulation-dependent bladder contraction in vivo, the action of the test compound on increase in intravesical pressure induced by pelvic nerve electrical stimulation using rats was measured by the following method.
SD female rats (Japan SLC, Inc.) were anesthetized by subcutaneously administering 1200 mg/kg of urethane (manufactured by Fujifilm Wako Pure Chemical Industries, Ltd.), and then the lower abdomen of each rat was incised at the midline. After the ureters on both sides were ligated and cut, a cannula for measuring intravesical pressure (PE-60, manufactured by BECTON DICKINSON) was inserted into the bladder through the external urethral orifice and fixed with sutures. After about 200 μL of saline was injected via the cannula inserted into the bladder, the other end of the cannula was connected to a pressure transducer to measure intravesical pressure.
The pelvic nerve near the bladder of the rat was separated under stereomicroscope observation and an electrode for nerve stimulation (K2-14015M-PT, manufactured by BrainScience idea. Co., Ltd.) was attached. The peritoneal cavity of the rat was filled with liquid paraffin (26114-75, NACALAI TESQUE, INC.). After the postoperative rest period, the pelvic nerve was electrically stimulated to cause an increase in intravesical pressure, using an electrical stimulator (SEN-7203, manufactured by NIHON KOHDEN CORPORATION). At this time, the stimulation frequency was set to 8 Hz, the pulse width was set to 0.3 ms, and the stimulation time was set to 10 seconds. The voltage of the electrical stimulator was adjusted such that the increase in intravesical pressure was about 50% to 70% of that at stimulation with 10 V.
Then, the electric stimulation was repeated at an interval of 10 minutes. After the increase in intravesical pressure induced by electric stimulation was stabilized three times or more, a test compound (dosage 0.3 mg/kg), distigmine bromide (dosage 0.03, 0.1 mg/kg), or a vehicle was intravenously administered at a single dosage of 1.0 mL/kg via a catheter placed into a femoral vein, and the effect of the test compound on increase in intravesical pressure was measured for 1 hour. Saline was used as a vehicle, and the test compound was dissolved in dimethylsulfoxide and then added to the vehicle. At this time, the final concentration of dimethylsulfoxide was set to 10%.
The response data (intravesical pressure) were imported to a personal computer via a data collection and analysis system (PowerLab (registered trademark), manufactured by ADInstruments) and analyzed using analysis software (LabChart (registered trademark), manufactured by ADInstruments). For each electric stimulation, AUC of the increase in intravesical pressure (area under the curve of plot of intravesical pressure) was calculated, and a ratio of change Rc (unit: %) with respect to the value (AUC) before administering the test compound was calculated according to the following equation (2). In the equation (2), Ab denotes AUC before administering the test compound, and Aa denotes AUC after administering the test compound. In addition, the maximum effect observed during 1 hour after administering the test compound (maximum ratio of change Rc) was defined as the effect of the test compound. The higher the ratio of change Rc, the higher the effect of enhancing bladder contraction force and the higher the effect of increasing intravesical pressure. Rc=100×(Aa−Ab)/Ab (2)
Consider `COCC1(CN(C)c2cc(-c3cnc(C4CC4)c(C(F)(F)F)c3)nc3nc(NC(=O)c4ccc(CCC(=O)O)cn4)[nH]c23)CCCC1` [Example 1, 3-[6-({5-[6-Cyclopropyl-5-(trifluoromethyl)pyridin-3-yl]-7-({[1-(methoxymethyl)cyclopentyl]methyl}(methyl)amino)-1H-imidazo[4,5-b]pyridin-2-yl}carbamoyl)pyridin-3-yl]propanoic acid], for which the change in vivo at 0.3 mg/kg was 55.3%.

Turning to `CCOc1cc(-c2cc(N(C)CC3(COC)CCCC3)c3[nH]c(NC(=O)c4ccc(CCC(=O)O)cn4)nc3n2)cc(C(F)(F)F)n1` [Example 2, 3-[6-({5-[2-Ethoxy-6-(trifluoromethyl)pyridin-4-yl]-7-({[1-(methoxymethyl)cyclopentyl]methyl}(methyl)amino)-1H-imidazo[4,5-b]pyridin-2-yl}carbamoyl)pyridin-3-yl]propanoic acid], the change in vivo at 0.3 mg/kg came out at 36.5%. Turning to `COCC1(CN(C)c2cc(-c3cc(C4CC4)nc(C(F)(F)F)c3)nc3nc(NC(=O)c4ccc(CCC(=O)O)cn4)[nH]c23)CCCC1` [Example 3, 3-[6-({5-[2-Cyclopropyl-6-(trifluoromethyl)pyridin-4-yl]-7-({[1-(methoxymethyl)cyclopentyl]methyl}(methyl)amino)-1H-imidazo[4,5-b]pyridin-2-yl}carbamoyl)pyridin-3-yl]propanoic acid], the change in vivo at 0.3 mg/kg amounted to 28.5%.

`COCC1(CN(C)c2cc(-c3cnc(C4CC4)c(C(F)(F)F)c3)nc3nc(NC(=O)c4ccc(CC(C)C(=O)O)cn4)[nH]c23)CCCC1` (stereo not drawn) [Example 4, 3-[6-({5-[6-Cyclopropyl-5-(trifluoromethyl)pyridin-3-yl]-7-({[1-(methoxymethyl)cyclopentyl]methyl}(methyl)amino)-1H-imidazo[4,5-b]pyridin-2-yl}carbamoyl)pyridin-3-yl]-2-methylpropanoic acid]: the change in vivo at 0.3 mg/kg is 89.5%.

On to `COCC1(CN(C)c2cc(-c3cnc(C4CC4)c(C(F)(F)F)c3)nc3nc(NC(=O)c4cn5c(n4)CCC(C(=O)O)C5)[nH]c23)CCCC1` (stereo not drawn) [Example 5, 2-({5-[6-Cyclopropyl-5-(trifluoromethyl)pyridin-3-yl]-7-({[1-(methoxymethyl)cyclopentyl]methyl}(methyl)amino)-1H-imidazo[4,5-b]pyridin-2-yl}carbamoyl)-5,6,7,8-tetrahydroimidazo[1,2-a]pyridine-6-carboxylic acid], for which the change in vivo at 0.3 mg/kg is 49.1%.

With `COCC1(CN(C)c2cc(-c3cnc(C4CC4)c(C(F)(F)F)c3)nc3nc(NC(=O)c4ccc(CN(C)CC(=O)O)cn4)[nH]c23)CCCC1` [Example 6], the change in vivo at 0.3 mg/kg came to 55.1%.

As for `COCC1(CN(C)c2cc(-c3cnc(C4CC4)c(C(F)(F)F)c3)nc3nc(NC(=O)c4cn(CCCC(=O)O)cn4)[nH]c23)CCCC1` [Example 7, 4-[4-({5-[6-Cyclopropyl-5-(trifluoromethyl)pyridin-3-yl]-7-({[1-(methoxymethyl)cyclopentyl]methyl}(methyl)amino)-1H-imidazo[4,5-b]pyridin-2-yl}carbamoyl)-1H-imidazol-1-yl]butanoic acid], the change in vivo at 0.3 mg/kg was 41.8%. With `COCC1(CN(C)c2cc(-c3cnc(C4CC4)c(C(F)(F)F)c3)nc3nc(NC(=O)c4ccc(CCCC(=O)O)cn4)[nH]c23)CCCC1` [Example 8, 4-[6-({5-[6-Cyclopropyl-5-(trifluoromethyl)pyridin-3-yl]-7-({[1-(methoxymethyl)cyclopentyl]methyl}(methyl)amino)-1H-imidazo[4,5-b]pyridin-2-yl}carbamoyl)pyridin-3-yl]butanoic acid], the change in vivo at 0.3 mg/kg was found to be 85.7%.

Regarding `CCOc1cc(-c2cc(N(C)CC3(COC)CCCC3)c3[nH]c(NC(=O)c4cc5c(cn4)CN(CCC(=O)O)CC5)nc3n2)cc(C(F)(F)F)n1` [Example 9], the change in vivo at 0.3 mg/kg came to 44%.

`COCC1(CN(C)c2cc(-c3cc(C4CC4)nc(C(F)(F)F)c3)nc3nc(NC(=O)c4cc5c(cn4)CN(CCC(=O)O)CC5)[nH]c23)CCCC1` [Example 10, 3-[6-({5-[2-Cyclopropyl-6-(trifluoromethyl)pyridin-4-yl]-7-({[1-(methoxymethyl)cyclopentyl]methyl}(methyl)amino)-1H-imidazo[4,5-b]pyridin-2-yl}carbamoyl)-1,2,3,4-tetrahydro-2,7-naphthyridin-2-yl]propanoic acid]: the change in vivo at 0.3 mg/kg is 33.7%. With `COCC1(CN(C)c2cc(-c3cnc(C4CC4)c(C(F)(F)F)c3)nc3nc(NC(=O)c4ccc(CCCC(=O)O)cn4)[nH]c23)CCCCC1` [Example 11, 4-[6-({5-[6-Cyclopropyl-5-(trifluoromethyl)pyridin-3-yl]-7-({[1-(methoxymethyl)cyclohexyl]methyl}(methyl)amino)-1H-imidazo[4,5-b]pyridin-2-yl}carbamoyl)pyridin-3-yl]butanoic acid], the change in vivo at 0.3 mg/kg came out at 80.7%. With `CCOc1ncc(-c2cc(N(C)CC3(COC)CCCC3)c3[nH]c(NC(=O)c4ccc(CCCC(=O)O)cn4)nc3n2)cc1C(F)(F)F` [Example 12, 4-[6-({5-[6-Ethoxy-5-(trifluoromethyl)pyridin-3-yl]-7-({[1-(methoxymethyl)cyclopentyl]methyl}(methyl)amino)-1H-imidazo[4,5-b]pyridin-2-yl}carbamoyl)pyridin-3-yl]butanoic acid], the change in vivo at 0.3 mg/kg came to 53.4%. Take `CCOc1ncc(-c2cc(N(C)CC3(COC)CCCCC3)c3[nH]c(NC(=O)c4ccc(CCC(=O)O)cn4)nc3n2)cc1C(F)(F)F` [Example 13]: the change in vivo at 0.3 mg/kg was 113%.

Turning to `CCOc1ncc(-c2cc(N(C)CC3(COC)CCCCC3)c3[nH]c(NC(=O)c4ccc(CCCC(=O)O)cn4)nc3n2)cc1C(F)(F)F` [Example 14, 4-[6-({5-[6-Ethoxy-5-(trifluoromethyl)pyridin-3-yl]-7-({[1-(methoxymethyl)cyclohexyl]methyl}(methyl)amino)-1H-imidazo[4,5-b]pyridin-2-yl}carbamoyl)pyridin-3-yl]butanoic acid], the change in vivo at 0.3 mg/kg turned out to be 70.4%.

Staying with this data set, now noted: anesthetized SD female rats, intravenous, test compound 0.3 mg/kg, distigmine bromide 0.03, 0.1 mg/kg.
Turning to `CN(CCCCCCN(C)C(=O)Oc1ccc[n+](C)c1)C(=O)Oc1ccc[n+](C)c1` [distigmine bromide, reference compound], the “effect of enhancing bladder contraction force” value is on record as “exhibited an effect of enhancing bladder contraction force”.

Still in this data set, the particulars now being: anesthetized SD female rats, test compound 0.3 mg/kg intravenous, single dose.
For the compound `COCC1(CN(C)c2cc(-c3cnc(C4CC4)c(C(F)(F)F)c3)nc3nc(NC(=O)c4ccc(C5CC5C(=O)O)cn4)[nH]c23)CCCC1` (stereo not drawn) [Compound 49], the “Ratio of Change Rc of AUC of increase in intravesical pressure (maximum during 1 hour after administration)” value was 43.6%. The same measure, in the same setting: then `COCC1(CN(C)c2cc(-c3cnc(C4CC4)c(C(F)(F)F)c3)nc3nc(NC(=O)c4cn(C[C@@H](C)C(=O)O)cn4)[nH]c23)CCCC1` [Compound 53], with 50.2%.

Another data set deals with anesthetized rats. Described as above. The class given is in vivo, rat. The conditions noted are these: intravenous, 0.1 mg/kg.
With `CN(CCCCCCN(C)C(=O)Oc1ccc[n+](C)c1)C(=O)Oc1ccc[n+](C)c1` [distigmine bromide, reference compound], the “nicotinic side effect (fasciculation)” value is given as “a nicotinic side effect (fasciculation) was observed”.
